From patent US12312641B2, “Sensitivity marker for antibody-drug conjugate” (priority 2018, dated 2025)
Read-outs that look alike come from different tables or passages of the source.

B1: antibody-drug conjugate (1): humanized anti-hTROP2 antibody (SEQ ID NO: 1 residues 20-470, SEQ ID NO: 2 residues 21-234) conjugated to the exatecan-derivative drug-linker via a thioether bond (conjugate, chains of the INN, looked up)
VH: QVQLVQSGAEVKKPGASVKVSCKASGYTFTTAGMQWVRQAPGQGLEWMGWINTHSGVPKYAEDFKGRVTISADTSTSTAYLQLSSLKSEDTAVYYCARSGFGSSYWYFDVWGQGTLVTVSS
VL: DIQMTQSPSSLSASVGDRVTITCKASQDVSTAVAWYQQKPGKAPKLLIYSASYRYTGVPSRFSGSGSGTDFTLTISSLQPEDFAVYYCQQHYITPLTFGQGTKLEIK
modifications: exatecan-derivative drug-linker

Tests used:
Format in all cases: cell-based
[1] = tested on: Human lung cancer cell line Calu-3; test: Cell proliferation inhibition test upon SLFN11 knockdown, Calu-3
Procedure: (§1) Human lung cancer cell line Calu-3 was obtained from ATCC and used for evaluation. Calu-3 cells suspended at 2×10^3 cells/mL in a MEM medium containing a non-essential amino acid solution, a pyruvic acid solution and 10% bovine fetal serum were seeded in a 10 cm cell culture dish at 10 mL/dish. Twenty-four hours after seeding, 100 pmol of ON-TARGETplus SLFN11 siRNA (Dharmacon Inc.) or ON-TARGETplus Non-targeting Control Pool (Dharmacon Inc.) and 30 μL of Lipofectamine™ RNAiMAX Transfection Reagent (Thermo Fisher Scientific Inc.) were suspended in 1 mL of Opti-MEM medium, and the entire amount of the suspension was added to the medium. After 72 hours, the medium was removed and the dish was washed with PBS, then the cells were dissociated and recovered from the dish using 1 mL of TrypLE™ Express. The recovered cells were suspended at 5×10^4 cells/mL in a MEM medium containing a non-essential amino acid solution, a pyruvic acid solution and 10% bovine fetal serum, and seeded in a 96-well cell culture plate at 100 μL/well. Twenty-four hours after seeding, the medium was replaced with a medium containing 100 nM, 33 nM, 11 nM, 3.7 nM, 1.2 nM, 0.41 nM, 0.13 nM, 0.045 nM, or 0 nM of compound (1) or antibody-drug conjugate (1) at 100 μL/well. The molar concentration of antibody-drug conjugate (1) was calculated by setting the average molecular weight to 150,000. Cells were all cultured at 37° C. under 5% CO2. After 72 hours from the medium replacement, ATPlite 1 step detection system (PerkinElmer Inc.) was added at 100 μL/well. The wells were incubated at room temperature for 10 minutes, then the luminescence intensity of each well was measured.
(§2) The cell growth inhibition rate (%) at each condition was calculated using the following calculation formula: Cell growth inhibition rate (%)=100×(1−T/C) • T: Average luminescence intensity of each well to which specimen was added • C: Average luminescence intensity of each well to which 0 nM specimen was added
(§3) The 50% inhibitory concentration at each condition was calculated by fitting to the following calculation formula: Cell viability (%)=(Emax−Emin)×Specimen concentration^γ/((Emax−50)/(50−Emin)×IC50^γ+Specimen concentration^γ)+Emin • Emax: maximum cell growth inhibition rate (%) • Emin: minimum cell growth inhibition rate (%) • IC50: 50% inhibitory concentration • γ: Hill coefficient
(§4) The fitting to the calculation formula was performed using SAS Systems Release 9.2 (SAS Institute Inc.).

[2] = tested on: Human pharyngeal cancer cell line FaDu; test: Cell proliferation inhibition test upon SLFN11 knockdown, FaDu; settings: for Cell proliferation inhibitory effect upon SLFN11 knockdown: FaDu cell lines, SLFN11 siRNA vs Non-targeting Control; for Fold change (SLFN11/Non-targeting Control): ratio of IC50
Procedure: Human pharyngeal cancer cell line FaDu was obtained from ATCC and used for evaluation. FaDu cells suspended at 2×10^3 cells/mL in a MEM medium containing a non-essential amino acid solution, a pyruvic acid solution and 10% bovine fetal serum were seeded in a 10 cm cell culture dish at 10 mL/dish. Twenty-four hours after seeding, 100 pmol of ON-TARGETplus SLFN11 siRNA (Dharmacon Inc.) or ON-TARGETplus Non-targeting Control Pool (Dharmacon Inc.) and 30 μL of Lipofectamine™ RNAiMAX Transfection Reagent (Thermo Fisher Scientific Inc.) were suspended in 1 mL of Opti-MEM medium, and the entire amount of the suspension was added to the medium. After 72 hours, the medium was removed and the dish was washed with PBS, then the cells were dissociated and recovered from the dish using 1 mL of TrypLE™ Express. The recovered cells were suspended at 5×10^4 cells/mL in a MEM medium containing a non-essential amino acid solution, a pyruvic acid solution and 10% bovine fetal serum, and were seeded in a 96-well cell culture plate at 100 μL/well. Twenty-four hours after seeding, the medium was replaced with a medium containing 100 nM, 33 nM, 11 nM, 3.7 nM, 1.2 nM, 0.41 nM, 0.13 nM, 0.045 nM, or 0 nM of compound (1) or antibody-drug conjugate (1) at 100 μL/well. The molar concentration of antibody-drug conjugate (1) was calculated by setting the average molecular weight to 150,000. Cells were all cultured at 37° C. under 5% CO2. After 72 hours from the medium replacement, ATPlite 1 step detection system (PerkinElmer Inc.) was added at 100 μL/well. The wells were incubated at room temperature for 10 minutes, then the luminescence intensity of each well was measured.
as §2, with “growth inhibition rate(%) at each” for “growth inhibition rate (%) at each”
as §3, §4

[3] = tested on: Human breast cancer cell line HCC38; test: Cell proliferation inhibition test upon SLFN11 knockdown, HCC38; settings: for Cell proliferation inhibitory effect upon SLFN11 knockdown: HCC38 cell lines, SLFN11 siRNA vs Non-targeting Control; for Fold change (SLFN11/Non-targeting Control): ratio of IC50
Procedure: as §1, with “breast” for “lung”, “HCC38” for “Calu-3”, “2×10^5” for “2×10^3”, “RPMI-1640” for “a MEM”, “containing” for “containing a non-essential amino acid solution, a pyruvic acid solution and”
as §2
as §3, with “concentration^γ/((max−50)/(50−Emin)×IC50^γ+Specimen” for “concentration^γ/((Emax−50)/(50−Emin)×IC50^γ+Specimen”
as §4

Molecule	Cell proliferation inhibitory effect upon SLFN11 knockdown ([1]; Calu-3 cell lines, SLFN11 siRNA vs Non-targeting Control)	Fold change (SLFN11/Non-targeting Control) ([1]; Calu-3 cells, ratio of IC50)	IC50 ([1]; Homo sapiens, Calu-3, 72 h, read-out: IC50 (nM) Non-targeting Control Pool)	IC50 ([1]; Homo sapiens, Calu-3, 72 h, read-out: IC50 (nM) SLFN11 siRNA)	Cell proliferation inhibitory effect upon SLFN11 knockdown [2]	Fold change (SLFN11/Non-targeting Control) ([2]; FaDu cells)	IC50 ([2]; Homo sapiens, FaDu, 72 h, read-out: IC50 (nM) Non-targeting Control Pool)	IC50 ([2]; Homo sapiens, FaDu, 72 h, read-out: IC50 (nM) SLFN11 siRNA)	Cell proliferation inhibitory effect upon SLFN11 knockdown [3]	Fold change (SLFN11/Non-targeting Control) ([3]; HCC38 cells)	IC50 ([3]; Homo sapiens, HCC38, 72 h, read-out: IC50 (nM) Non-targeting Control Pool)	IC50 ([3]; Homo sapiens, HCC38, 72 h, read-out: IC50 (nM) SLFN11 siRNA)	IC50 ([1]; Calu-3 cells, Non-targeting Control Pool, 72 hours, ATPlite, read-out: IC50 (nM) Non-targeting Control Pool)	IC50 ([1]; Calu-3 cells, SLFN11 siRNA knockdown, 72 hours, ATPlite, read-out: IC50 (nM) SLFN11 siRNA)	IC50 ([2]; FaDu cells, Non-targeting Control Pool, 72 hours, ATPlite, read-out: IC50 (nM) Non-targeting Control Pool)	IC50 ([2]; FaDu cells, SLFN11 siRNA knockdown, 72 hours, ATPlite, read-out: IC50 (nM) SLFN11 siRNA)	IC50 ([3]; HCC38 cells, Non-targeting Control Pool, 72 hours, ATPlite, read-out: IC50 (nM) Non-targeting Control Pool)	IC50 ([3]; HCC38 cells, SLFN11 siRNA knockdown, 72 hours, ATPlite, read-out: IC50 (nM) SLFN11 siRNA)
CC[C@@]1(O)C(=O)OCc2c1cc1n(c2=O)Cc2c-1nc1cc(F)c(C)c3c1c2[C@@H](NC(=O)CO)CC3 [Compound (1)]	attenuated by SLFN11 knockdown	>4.8	20.9 nM	> 100 nM	attenuated by SLFN11 knockdown	8.6	3.6 nM	30.8 nM	attenuated by SLFN11 knockdown	2.6	1.6 nM	4.2 nM						
B1					attenuated by SLFN11 knockdown	>2.3			attenuated by SLFN11 knockdown	>1.8			> 100 nM	> 100 nM	42.6 nM	> 100 nM	56.7 nM	> 100 nM
